ChEMBL document CHEMBL4219137, “A novel templates of piperazinyl-1,2-dihydroquinoline-3-carboxylates: Synthesis, anti-microbial evaluation and molecular docking studies” (Bioorg Med Chem Lett, 2018)
≈ marks a conversion by molar mass, not a printed value.

Tests used:
Micrococcus luteus [1] = test: Antibacterial activity against gram-positive Micrococcus luteus MTCC 2470 after 24 hrs by agar well diffusion method; format: functional; settings: MTCC 2470, 24 h
Micrococcus luteus [2] = test: Bactericidal activity against gram-positive Micrococcus luteus MTCC 2470 incubated for 24 hrs followed by microbial sample growth at Mueller Hinton agar plates; format: functional; settings: MTCC 2470, 24 h
Staphylococcus aureus [3] = test: Bactericidal activity against gram-positive Staphylococcus aureus MTCC 96 incubated for 24 hrs followed by microbial sample growth at Mueller Hinton agar plates; format: functional; settings: MTCC 96, 24 h
[4] = target: T1, 4,4'-diapophytoene synthase (Staphylococcus aureus, UniProt A9JQL9); test: Inhibition of Staphylococcus aureus dehydrosqualene synthase
T1 sequence (A9JQL9 whole entry): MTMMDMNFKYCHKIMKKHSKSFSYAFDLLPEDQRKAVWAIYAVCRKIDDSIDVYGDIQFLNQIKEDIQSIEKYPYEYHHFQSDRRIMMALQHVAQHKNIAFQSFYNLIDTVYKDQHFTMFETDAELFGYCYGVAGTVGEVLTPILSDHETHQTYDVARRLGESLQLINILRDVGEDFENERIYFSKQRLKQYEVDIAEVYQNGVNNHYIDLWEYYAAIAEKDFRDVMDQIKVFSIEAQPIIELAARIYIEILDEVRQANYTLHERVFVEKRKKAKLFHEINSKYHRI

Raoultella planticola [5] = test: Antibacterial activity against gram-negative Klebsiella planticola MTCC 530 after 24 hrs by agar well diffusion method; format: functional; settings: MTCC 530, 24 h
Staphylococcus aureus [6] = test: Antibacterial activity against gram-positive Staphylococcus aureus MTCC 96 after 24 hrs by agar well diffusion method; format: functional; settings: MTCC 96, 24 h
Raoultella planticola [7] = test: Bactericidal activity against gram-negative Klebsiella planticola MTCC 530 incubated for 24 hrs followed by microbial sample growth at Mueller Hinton agar plates; format: functional; settings: MTCC 530, 24 h
Escherichia coli [8] = test: Bactericidal activity against gram-negative Escherichia coli MTCC 739 incubated for 24 hrs followed by microbial sample growth at Mueller Hinton agar plates; format: functional; settings: MTCC 739, 24 h
Staphylococcus aureus [9] = test: Antibacterial activity against gram-positive Staphylococcus aureus MLS-16 MTCC 2940 after 24 hrs by agar well diffusion method; format: functional; settings: MLS-16 MTCC 2940, 24 h
Bacillus subtilis [10] = test: Antibacterial activity against gram-positive Bacillus subtilis MTCC 121 after 24 hrs by agar well diffusion method; format: functional; settings: MTCC 121, 24 h
Candida albicans [11] = test: Fungicidal activity against Candida albicans MTCC 3017 incubated for 24 hrs followed by microbial sample growth Sabouraud dextrose agar plates; format: functional; settings: MTCC 3017, 24 h
Escherichia coli [12] = test: Antibacterial activity against gram-negative Escherichia coli MTCC 739 after 24 hrs by agar well diffusion method; format: functional; settings: MTCC 739, 24 h
Candida albicans [13] = test: Antifungal activity against Candida albicans MTCC 3017 after 24 hrs by agar well diffusion method; format: functional; settings: MTCC 3017, 24 h
Bacillus subtilis [14] = test: Bactericidal activity against gram-positive Bacillus subtilis MTCC 121 incubated for 24 hrs followed by microbial sample growth at Mueller Hinton agar plates; format: functional; settings: MTCC 121, 24 h
Staphylococcus aureus [15] = test: Bactericidal activity against gram-positive Staphylococcus aureus MLS-16 MTCC 2940 incubated for 24 hrs followed by microbial sample growth at Mueller Hinton agar plates; format: functional; settings: MLS-16 MTCC 2940, 24 h
Pseudomonas aeruginosa = test: microbe, parasite or virus in culture; settings: MTCC 2453, 24 h
Description: Bactericidal activity against gram-negative Pseudomonas aeruginosa MTCC 2453 incubated for 24 hrs followed by microbial sample growth at Mueller Hinton agar plates

Row | Structure (SMILES) | MIC (Micrococcus luteus [1]) [µg/mL] | MBC (Micrococcus luteus [2]) [µg/mL] | MBC (Staphylococcus aureus [3]) [µg/mL] | Ki [4] [µM] | MIC (Raoultella planticola [5]) [µg/mL] | MIC (Staphylococcus aureus [6]) [µg/mL] | MBC (Raoultella planticola [7]) [µg/mL] | MBC (Escherichia coli [8]) [µg/mL] | MIC (Staphylococcus aureus [9]) [µg/mL] | MIC (Bacillus subtilis [10]) [µg/mL] | MFC (Candida albicans [11]) [µg/mL] | MIC (Escherichia coli [12]) [µg/mL] | MIC (Candida albicans [13]) [µg/mL] | MBC (Bacillus subtilis [14]) [µg/mL] | MBC (Staphylococcus aureus [15]) [µg/mL] | MBC (Pseudomonas aeruginosa) [µg/mL]
1 | CCOC(=O)c1c(N2CCCC2)c2ccccc2n(CC)c1=O | 7.8 (≈ 24.8 µM) | 15.6 (≈ 49.6 µM) | – | – | – | – | – | – | – | – | – | – | – | – | – | –
2 | CCOC(=O)c1c(N2CCN(c3ccccc3F)CC2)c2ccccc2n(CC)c1=O | – | – | 7.8 (≈ 18.4 µM) | 8.33 | 7.8 (≈ 18.4 µM) | 3.9 (≈ 9.21 µM) | 7.8 (≈ 18.4 µM) | – | – | – | – | – | – | – | – | –
3 | CCOC(=O)c1c(N2CCN(c3ccccc3F)CC2)c2ccccc2n(C)c1=O | 3.9 (≈ 9.52 µM) | 7.8 (≈ 19 µM) | 7.8 (≈ 19 µM) | 7.87 | – | 3.9 (≈ 9.52 µM) | – | 7.8 (≈ 19 µM) | 7.8 (≈ 19 µM) | 3.9 (≈ 9.52 µM) | 7.8 (≈ 19 µM) | 3.9 (≈ 9.52 µM) | 3.9 (≈ 9.52 µM) | 7.8 (≈ 19 µM) | 15.6 (≈ 38.1 µM) | –
4 | O=C(O)c1cn(C2CC2)c2cc(N3CCNCC3)c(F)cc2c1=O [CIPROFLOXACIN] | 0.9 (≈ 2.72 µM) | 0.9 (≈ 2.72 µM) | 0.9 (≈ 2.72 µM) | – | 0.9 (≈ 2.72 µM) | 0.9 (≈ 2.72 µM) | 0.9 (≈ 2.72 µM) | 0.9 (≈ 2.72 µM) | 0.9 (≈ 2.72 µM) | 0.9 (≈ 2.72 µM) | – | 0.9 (≈ 2.72 µM) | – | 0.9 (≈ 2.72 µM) | 0.9 (≈ 2.72 µM) | 0.9 (≈ 2.72 µM)
5 | CCOC(=O)c1c(N2CCN(c3ccccc3OC)CC2)c2ccccc2n(C)c1=O | – | – | 7.8 (≈ 18.5 µM) | 19.8 | – | 3.9 (≈ 9.25 µM) | – | – | – | – | – | – | – | – | – | –
6 | CCOC(=O)c1c(N2CCN(c3cccc(OC)c3)CC2)c2ccccc2n(CC)c1=O | 7.8 (≈ 17.9 µM) | 15.6 (≈ 35.8 µM) | 7.8 (≈ 17.9 µM) | 15.7 | – | 3.9 (≈ 8.95 µM) | – | – | – | – | – | – | – | – | – | –
7 | CCOC(=O)c1c(N2CCN(c3ccccc3OC)CC2)c2ccccc2n(CC)c1=O | – | – | 7.8 (≈ 17.9 µM) | 14 | – | 3.9 (≈ 8.95 µM) | – | – | – | – | – | – | – | – | – | –
8 | CCOC(=O)c1c(N2CCN(C(=O)OC(C)(C)C)CC2)c2ccccc2n(CC)c1=O | – | – | 7.8 (≈ 18.2 µM) | 20.2 | – | 3.9 (≈ 9.08 µM) | – | – | – | – | – | – | – | – | – | –
9 | CCOC(=O)c1c(N2CCN(c3ccc(F)cc3)CC2)c2ccccc2n(C)c1=O | – | – | 7.8 (≈ 19 µM) | 1.26 | – | 3.9 (≈ 9.52 µM) | – | – | – | – | 15.6 (≈ 38.1 µM) | – | 7.8 (≈ 19 µM) | – | – | –
10 | Clc1ccc(COC(Cn2ccnc2)c2ccc(Cl)cc2Cl)c(Cl)c1 (stereo not given) [MICONAZOLE] | – | – | – | – | – | – | – | – | – | – | 7.8 (≈ 18.7 µM) | – | 7.8 (≈ 18.7 µM) | – | – | –
11 | CCOC(=O)c1c(N2CCN(c3ccccc3C(F)(F)F)CC2)c2ccccc2n(C)c1=O | – | – | – | – | – | – | – | – | – | – | 15.6 (≈ 34 µM) | – | 7.8 (≈ 17 µM) | – | – | –
12 | CCOC(=O)c1c(N2CCN(c3ccc(F)cc3)CC2)c2ccccc2n(CC)c1=O | 3.9 (≈ 9.21 µM) | 7.8 (≈ 18.4 µM) | 7.8 (≈ 18.4 µM) | 6.89 | 3.9 (≈ 9.21 µM) | 3.9 (≈ 9.21 µM) | 7.8 (≈ 18.4 µM) | 7.8 (≈ 18.4 µM) | 3.9 (≈ 9.21 µM) | 3.9 (≈ 9.21 µM) | 7.8 (≈ 18.4 µM) | 3.9 (≈ 9.21 µM) | 3.9 (≈ 9.21 µM) | 7.8 (≈ 18.4 µM) | 7.8 (≈ 18.4 µM) | –
13 | CCOC(=O)c1c(N2CCN(C(=O)OC(C)(C)C)CC2)c2ccccc2n(C)c1=O | – | – | 7.8 (≈ 18.8 µM) | 5.19 | – | 3.9 (≈ 9.39 µM) | – | – | – | – | – | – | – | – | – | –
14 | CCOC(=O)c1c(N2CCN(c3ccccc3C(F)(F)F)CC2)c2ccccc2n(CC)c1=O | – | – | – | – | – | – | – | 15.6 (≈ 32.9 µM) | – | 7.8 (≈ 16.5 µM) | 15.6 (≈ 32.9 µM) | 7.8 (≈ 16.5 µM) | 7.8 (≈ 16.5 µM) | 15.6 (≈ 32.9 µM) | – | –
